ChEMBL document CHEMBL4428116, “Synthesis, molecular modeling and SAR study of novel pyrazolo[5,1-f][1,6]naphthyridines as CB2 receptor antagonists/inverse agonists” (Bioorg Med Chem, 2016)
The source made the active and inactive calls. No cut-off for these calls is given here.

How the values were obtained:
Cannabinoid receptor 1 = Cannabinoid receptor 1 (Homo sapiens, UniProt P21554); test: Displacement of [3H]CP-55,940 from human CB1 receptor expressed in CHO cell membrane after 90 mins by scintillation counting method; format: cell membranes
Cannabinoid receptor 1, sequence (P21554 whole entry): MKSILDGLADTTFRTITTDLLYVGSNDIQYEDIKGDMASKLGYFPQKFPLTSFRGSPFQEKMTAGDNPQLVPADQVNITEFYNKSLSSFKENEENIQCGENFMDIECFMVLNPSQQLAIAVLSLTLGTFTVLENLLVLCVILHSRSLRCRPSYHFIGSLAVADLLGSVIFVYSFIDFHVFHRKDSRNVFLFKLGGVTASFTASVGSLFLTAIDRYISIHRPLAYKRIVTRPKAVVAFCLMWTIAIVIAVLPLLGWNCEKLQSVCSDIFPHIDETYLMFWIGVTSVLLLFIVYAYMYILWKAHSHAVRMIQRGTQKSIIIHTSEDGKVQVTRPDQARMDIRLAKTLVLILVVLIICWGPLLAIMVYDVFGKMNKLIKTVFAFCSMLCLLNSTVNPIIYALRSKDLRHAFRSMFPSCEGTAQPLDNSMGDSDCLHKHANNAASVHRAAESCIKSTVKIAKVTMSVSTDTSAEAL

Cannabinoid receptor 2 [1] = target: T1, Cannabinoid receptor 2 (Homo sapiens, UniProt P34972); test: Displacement of [3H]CP-55,940 from human CB2 receptor expressed in CHO cell membrane after 60 mins by scintillation counting method; format: cell membranes
T1 sequence (P34972 whole entry): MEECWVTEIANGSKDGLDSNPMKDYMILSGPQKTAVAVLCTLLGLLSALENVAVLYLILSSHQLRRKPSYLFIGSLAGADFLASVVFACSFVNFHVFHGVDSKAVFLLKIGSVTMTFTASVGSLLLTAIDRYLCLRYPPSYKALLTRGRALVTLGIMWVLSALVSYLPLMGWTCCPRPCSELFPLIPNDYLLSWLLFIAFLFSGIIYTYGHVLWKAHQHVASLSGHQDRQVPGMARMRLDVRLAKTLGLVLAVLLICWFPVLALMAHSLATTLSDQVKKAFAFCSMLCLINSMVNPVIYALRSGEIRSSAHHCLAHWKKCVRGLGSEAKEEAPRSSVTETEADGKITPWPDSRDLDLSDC

Homo sapiens = species: Homo sapiens; test: Selectivity ratio of Ki for human CB1 receptor expressed in CHO cell membrane to Ki for human CB2 receptor expressed in CHO cell membrane; format: cell-based
Cannabinoid receptor 2 [2] = target: T1, Cannabinoid receptor 2; test: Antagonist activity at human CB2 receptor expressed in CHO cells assessed as inhibition of WIN 55,212-2-induced reduction in forskolin-stimulated cAMP accumulation at 0.1 to 10 uM by immunoassay; format: functional, cell-based
Cannabinoid receptor 2 [3] = target: T1, Cannabinoid receptor 2; test: Antagonist activity at human CB2 receptor expressed in CHO cells assessed as inhibition of WIN 55,212-2-induced reduction in forskolin-stimulated cAMP accumulation by Schild plot analysis; format: functional, cell-based
Cannabinoid receptor 2 [4] = target: T1, Cannabinoid receptor 2; test: Inverse agonist activity at human CB2 receptor expressed in CHO cells assessed as increase in forskolin-stimulated cAMP production at 1 to 10 uM by immunoassay; format: functional, cell-based
Cannabinoid receptor 2 [5] = target: T1, Cannabinoid receptor 2; test: Antagonist activity at human CB2 receptor expressed in CHO cells assessed as inhibition of WIN 55,212-2-induced reduction in forskolin-stimulated cAMP accumulation by immunoassay; format: functional, cell-based
Cannabinoid receptor 2 [6] = target: T1, Cannabinoid receptor 2; test: Inverse agonist activity at human CB2 receptor expressed in CHO cells assessed as increase in forskolin-stimulated cAMP production at 0.1 uM by immunoassay; format: functional, cell-based
Mus musculus = species: Mus musculus; test: Selectivity ratio of Ki for CB1 receptor in CD-1 mouse cerebellum membrane to Ki for CB2 receptor in CD-1 mouse spleen homogenate; format: cell membranes

Row | SMILES | Ki (Cannabinoid receptor 1) | Ki (Cannabinoid receptor 2 [1]) | Ratio Ki (Homo sapiens) | inhibition (Cannabinoid receptor 2 [2]) | Kb (Cannabinoid receptor 2 [3]) | Activity (Cannabinoid receptor 2 [4]) | inhibition (Cannabinoid receptor 2 [5]) | Activity (Cannabinoid receptor 2 [6]) | Ratio Ki (Mus musculus)
1 | Cc1ccc(-c2cc3ncccc3c3cc(C(=O)NC4CCCCC4)nn23)cc1 | > 10000 nM | 2130 nM | > 4.7 | – | – | – | – | – | –
2 | Cc1ccc(-c2cc3ncccc3c3cc(C(=O)N[C@H]4CC5CCC4(C)C5(C)C)nn23)cc1 (stereo partly specified) | 7000 nM | 53 nM | 132 | Active | 505 nM | Active | – | – | –
3 | Cc1ccc(-c2cc3ncccc3c3cc(C(=O)N[C@@H]4C[C@H](C)CC[C@H]4C(C)C)nn23)cc1 | 3300 nM | 280 nM | 12 | – | – | – | – | – | –
4 | Cc1ccc(-c2cc3ncccc3c3cc(C(=O)N[C@H]4C5(C)CCC(C5)C4(C)C)nn23)cc1 (stereo partly specified) | 2200 nM | 800 nM | 2.7 | – | – | – | – | – | –
5 | CC1=C(C(=O)c2cccc3ccccc23)C2C=CC=C3OC[C@@H](CN4CCOCC4)N1C32 (stereo partly specified) | 13 nM | – | 5.2 | – | – | – | – | – | –
6 | Cc1ccc(-c2cc3ncccc3c3cc(C(=O)NC45CC6CC(CC(C6)C4)C5)nn23)cc1 | 5700 nM | 33 nM | 173 | – | 316 nM | – | Dose-dependent effect | Active | –
7 | Cc1ccc(-c2cc3ncccc3c3cc(C(=O)NC4C5CC(C[C@@H]4C)C5(C)C)nn23)cc1 (stereo partly specified) | > 10000 nM | 240 nM | > 42 | – | – | – | – | – | –
8 | CC1(C)C2CC[C@@H](CNC(=O)c3cc4c5cccnc5cc(-c5ccc(Cl)cc5Cl)n4n3)C1C2 (stereo partly specified) | > 10000 nM | 67 nM | > 149 | Active | 650 nM | Active | – | – | –
9 | Cc1ccc(-c2cc3ncccc3c3cc(C(=O)NC4C5CC6CC(C5)CC4C6)nn23)cc1 (stereo unspecified) | > 10000 nM | 133 nM | > 75 | – | – | – | – | – | –
10 | Cc1ccc(-c2cc3ncccc3c3cc(C(=O)NN4CCCCC4)nn23)cc1 | > 10000 nM | > 1000 nM | – | – | – | – | – | – | –
11 | Cc1ccc(-c2cc3ncccc3c3cc(C(=O)NC[C@@H]4CCC5CC4C5(C)C)nn23)cc1 (stereo partly specified) | > 10000 nM | 120 nM | > 83 | – | – | – | – | – | –
12 | Cc1ccc2c(c1)Cc1c(C(=O)NN3CCCCC3)nn(-c3ccc(Cl)cc3Cl)c1-2 | – | – | – | – | – | – | – | – | 9810
